Article PMC3914206

Experiments:
panel of 442 kinases [1] = target: T1, panel of 442 kinases (Homo sapiens, UniProt Q13546); assay type: binding; settings: Compound Concentration 10 µM
T1 construct: purchased KINOMEscan
T1 sequence (Q13546 1-671): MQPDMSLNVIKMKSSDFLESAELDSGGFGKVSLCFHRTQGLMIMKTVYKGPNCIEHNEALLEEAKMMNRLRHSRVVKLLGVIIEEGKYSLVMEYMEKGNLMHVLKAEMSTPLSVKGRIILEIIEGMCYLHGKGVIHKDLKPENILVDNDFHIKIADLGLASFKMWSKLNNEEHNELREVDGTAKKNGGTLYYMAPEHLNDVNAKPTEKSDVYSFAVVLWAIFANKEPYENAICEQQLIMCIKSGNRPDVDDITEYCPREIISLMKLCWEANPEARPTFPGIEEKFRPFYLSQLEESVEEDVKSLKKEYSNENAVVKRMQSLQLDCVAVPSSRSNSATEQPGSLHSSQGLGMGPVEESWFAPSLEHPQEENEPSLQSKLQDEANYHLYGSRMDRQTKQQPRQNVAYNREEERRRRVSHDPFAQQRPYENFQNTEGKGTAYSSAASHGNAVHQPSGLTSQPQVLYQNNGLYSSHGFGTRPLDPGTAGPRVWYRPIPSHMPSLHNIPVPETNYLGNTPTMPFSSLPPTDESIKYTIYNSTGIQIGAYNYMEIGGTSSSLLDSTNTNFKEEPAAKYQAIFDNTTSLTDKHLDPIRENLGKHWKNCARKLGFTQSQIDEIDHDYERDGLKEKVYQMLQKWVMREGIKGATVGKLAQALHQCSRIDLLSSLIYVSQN
Description: (§1) We assessed the selectivity of members of this scaffold using the KINOMEscan methodology across a near comprehensive panel of 442 kinases [[18,27]].

panel of 442 kinases [2] = target: T2, panel of 442 kinases (Homo sapiens, UniProt O14757); assay type: binding; settings: Compound Concentration 10 µM
T2 construct: purchased KINOMEscan
T2 sequence (O14757 1-476): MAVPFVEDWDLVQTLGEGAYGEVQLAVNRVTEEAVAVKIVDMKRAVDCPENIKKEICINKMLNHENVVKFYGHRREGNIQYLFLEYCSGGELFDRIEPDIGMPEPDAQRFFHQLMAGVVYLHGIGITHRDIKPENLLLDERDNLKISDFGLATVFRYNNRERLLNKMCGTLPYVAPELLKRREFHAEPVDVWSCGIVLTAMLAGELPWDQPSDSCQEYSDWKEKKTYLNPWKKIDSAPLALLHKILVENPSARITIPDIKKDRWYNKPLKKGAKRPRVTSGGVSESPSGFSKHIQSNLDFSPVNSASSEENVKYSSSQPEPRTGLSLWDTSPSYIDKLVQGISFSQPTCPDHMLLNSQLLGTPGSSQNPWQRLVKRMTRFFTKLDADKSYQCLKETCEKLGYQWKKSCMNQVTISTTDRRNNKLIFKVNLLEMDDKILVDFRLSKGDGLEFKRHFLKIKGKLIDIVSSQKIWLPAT
Description: as §1

Structure (SMILES) | KINOMEscan: RIPK1 (panel of 442 kinases [1]) | KINOMEscan: CHEK1 (panel of 442 kinases [2])
COc1cc(C(=O)N2CCC(N3CCN(C)CC3)CC2)ccc1Nc1ncc2c(n1)N1CCc3cccc(c31)C(=O)N2C [Compound 24] | 76 | 85
CCOc1cc(C(=O)N2CCC(N3CCN(C)CC3)CC2)ccc1Nc1ncc2c(n1)N(C1CCCC1)c1ccccc1C(=O)N2C [Compound 26] | 100 | 100
COc1cc(C(=O)N2CCC(N3CCN(C)CC3)CC2)ccc1Nc1ncc2c(n1)N(C1CCCC1)c1ccccc1C(=O)N2C [Compound 25, 11-cyclopentyl-2-((2-methoxy-4-(4-(4-methylpiperazin-1-yl)piperidine-1-carbonyl)phenyl)amino)-5-methyl-5H-benzo[e]pyrimido[5,4-b][1,4]diazepin-6(11H)-one] | 100 | 100
COc1cc(C(=O)N2CCC(N3CCN(C)CC3)CC2)ccc1Nc1ncc2c(n1)N(C)c1ccccc1C(=O)N2C [15 (LRRK2-IN-1)] | 99 | 100
